Laboratory results: patent publication US5177078A, “Piperazine derivatives” (John Wyeth & Brother Limited, priority 1990, dated 1993)

What was measured:
[1] = target: T1, 5-HT1A receptor (Rattus norvegicus, UniProt P19327); assay: 5-HT1A receptor binding activity in rat hippocampal membrane homogenate; conditions: method of Alexander and Wood
T1 construct: syndrome in the rat; from tissue; host or cells: living rat (endogenous receptor of the central nervous system)
T1 sequence (P19327 1-422): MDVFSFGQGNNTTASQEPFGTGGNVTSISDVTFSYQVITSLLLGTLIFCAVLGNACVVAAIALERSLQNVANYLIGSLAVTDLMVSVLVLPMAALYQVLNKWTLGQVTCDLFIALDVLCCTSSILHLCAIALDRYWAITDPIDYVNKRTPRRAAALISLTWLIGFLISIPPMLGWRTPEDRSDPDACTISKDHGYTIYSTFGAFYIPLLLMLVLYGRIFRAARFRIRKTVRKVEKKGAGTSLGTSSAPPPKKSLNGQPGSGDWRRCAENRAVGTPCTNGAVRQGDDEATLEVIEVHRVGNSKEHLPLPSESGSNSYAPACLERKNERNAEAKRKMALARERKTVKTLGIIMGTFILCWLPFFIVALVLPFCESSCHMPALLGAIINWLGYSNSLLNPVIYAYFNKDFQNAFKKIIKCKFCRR
Description: The compounds of the invention are tested for 5-HT1A receptor binding activity in rat hippocampal membrane homogenate by the method of B S Alexander and M D Wood, J Pharm Pharmacol, 1988, 40, 888-891.

[2] = target: T1, 5-HT1A receptor; assay: antagonism of 8-OH DPAT syndrome in the rat (5-HT1A receptor antagonism activity); type: in vivo
Description: The compounds are tested for 5-HT1A receptor antagonism activity in a test involving the antagonism of 8-hydroxy-2-(di-n-propylamino)-tetralin (8-OH DPAT) syndrome in the rat. (R,S)-1-(2-Methoxyphenyl)-4-[2-(IH-imidazol-1-yl) -2-(phenyl)ethylpiperazine had MED of 1 mg/kg subcut and 10 mg/kg p.o when tested in this procedure.

IC50 [1]: 15.8 nM | MED ([2]; p.o): 10 mg/kg | MED ([2]; subcut): 1 mg/kg
Compound: COc1ccccc1N1CCN(CC(c2ccccc2)n2ccnc2)CC1 (stereo not drawn) [Example 1, 1-(2-Methoxyphenyl)-4-[2-(1H-imidazol-1-yl)-2-(phenyl)ethyl]piperazine]
